Results from patent EP2119770B1, “Production of alpha-oxyfunctionalized carbonyl compounds” (priority 2008, dated 2009).

Tests used:
Format in all cases: biochemical
[1] = target: T1, Gox0502 (Gluconobacter oxydans, UniProt Q5FTL6); assay: Enzyme activity assay (rate of NAD(P)H decrease at 340 nm), Gox0502; parameters: Strep-tag II (N); made in house; host or cells: E. coli BL21 or E. coli DH5α (pASK-IBA5); conditions: 10 mM substrate; for Specific Activity: Tab. 7, Gox0502, cofactor NADPH, pH 7.0, 30 °C; for Activity: Table 3, Gox0502, K-phosphate buffer pH 7.0, 0.05 mM NAD(P)H, 30 °C
T1 sequence (Q5FTL6 1-361): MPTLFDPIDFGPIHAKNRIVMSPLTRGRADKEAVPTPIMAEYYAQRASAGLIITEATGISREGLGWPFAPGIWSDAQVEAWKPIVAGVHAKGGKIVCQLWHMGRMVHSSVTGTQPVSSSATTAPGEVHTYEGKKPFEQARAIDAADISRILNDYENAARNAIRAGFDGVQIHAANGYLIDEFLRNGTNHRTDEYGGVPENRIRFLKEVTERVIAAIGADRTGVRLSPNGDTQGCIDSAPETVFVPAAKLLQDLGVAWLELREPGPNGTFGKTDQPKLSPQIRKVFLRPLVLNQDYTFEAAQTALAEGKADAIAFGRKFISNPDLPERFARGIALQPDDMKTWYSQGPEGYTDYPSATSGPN
Method in brief: (§1)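 Purified enzymes assayed at 30 °C in 40 mM potassium phosphate pH 7.0 with 10 mM substrate and NAD(P)H (0.025 mM, or 0.05 mM in the standard mixture), started by adding enzyme or substrate. Activity followed as the rate of NAD(P)H decrease at 340 nm; one unit = 1 µmol pyridine nucleotide converted per min; protein measured by Bradford.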

[2] = target: T2, Gox2684 (Gluconobacter oxydans, UniProt Q5HXK5); assay: Enzyme activity assay (rate of NAD(P)H decrease at 340 nm), Gox2684; conditions: for activities: Gox2684, substrates with highest activities; for Specific Activities: Tab. 8, GOX2684, cofactor NADPH, 10 mM substrate, pH 7.0, 30 °C
T2 sequence (Q5HXK5 1-357): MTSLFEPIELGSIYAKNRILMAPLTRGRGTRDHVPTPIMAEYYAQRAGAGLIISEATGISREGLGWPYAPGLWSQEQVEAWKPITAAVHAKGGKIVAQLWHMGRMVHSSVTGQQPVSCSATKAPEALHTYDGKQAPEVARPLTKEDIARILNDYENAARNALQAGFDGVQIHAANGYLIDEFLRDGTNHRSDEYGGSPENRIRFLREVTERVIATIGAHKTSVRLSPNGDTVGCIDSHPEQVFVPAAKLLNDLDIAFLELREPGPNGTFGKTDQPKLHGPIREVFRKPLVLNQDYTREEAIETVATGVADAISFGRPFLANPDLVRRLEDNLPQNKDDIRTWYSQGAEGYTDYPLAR
Method in brief: as §1

[3] = target: Gox2107 (Gluconobacter oxydans, UniProt Q5FP53); assay: Enzyme activity assay (rate of NAD(P)H decrease at 340 nm), Gox2107; conditions: 10 mM substrate; for Specific Activity: Tab. 7, Gox2107, cofactor NADPH, pH 7.0, 30 °C
Method in brief: as §1

[4] = target: T3, Gox0646 (Gluconobacter oxydans, UniProt Q5FT73); assay: Enzyme activity assay (rate of NAD(P)H decrease at 340 nm), Gox0646; conditions: 10 mM substrate; for Specific Activities: Tab. 9, GOX0646, cofactor NADPH, pH 7.0, 30 °C; for Activity: Table 3, Gox0646, K-phosphate buffer pH 7.0, 0.05 mM NAD(P)H, 30 °C
T3 sequence (Q5FT73 1-264): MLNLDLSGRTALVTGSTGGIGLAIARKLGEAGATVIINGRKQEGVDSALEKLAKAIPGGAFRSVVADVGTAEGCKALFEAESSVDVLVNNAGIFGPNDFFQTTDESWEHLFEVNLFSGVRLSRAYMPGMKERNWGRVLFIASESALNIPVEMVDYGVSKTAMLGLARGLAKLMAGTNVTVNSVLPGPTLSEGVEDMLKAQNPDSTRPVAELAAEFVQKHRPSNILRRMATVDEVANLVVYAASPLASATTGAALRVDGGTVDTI
Protocol: Measurment of enzyme activity: NADPH-dependent alpha-ketocarbonyl reductases were assayed by a routine method used for NAD(P)-linked enzymes by recording the rate of decrease of NADPH at 340 nm (ε = 6.22 mM^-1 x cm^-1)) with substrates at 30 °C. The reaction mixture (1 ml) for reduction of alpha-ketocarbonyl substrates contained 10 mM substrate, 40 mM potassium phosphate buffer pH 7.0, 0.025 mM NAD(P)H , and the enzyme. Reactions were induced by addition of enzyme or substrate. One unit of enzyme activity was defined as the amount of enzyme catalyzing the conversion of 1 µmol of pyridine nucleotide per min at 30 °C.
NADPH-dependent α-ketocarbonyl reductases were assayed by a routine method used for NAD(P)-linked enzymes by recording the rate of decrease of NADPH at 340 nm (ε = 6.22 mM^-1.cm^-1) with substrates at 30 °C. The reaction mixture (1 ml) for reduction of alpha-ketocarbonyl substrates contained 10 mM substrate, 40 mM potassium phosphate buffer pH 7.0, 0.025 mM NADPH , and the enzyme. Reactions were induced by addition of enzyme or substrate. One unit of enzyme activity was defined as the amount of enzyme catalyzing the conversion of 1 µmol of pyridine nucleotide per min at 30 °C.
For each enzyme (Gox0313, Gox0502, Gox0644, Gox0646, Gox1615, Gox2107, and Gox2684 respectively), fresh enzyme preparations were used to validate the substrate spectrum and the kinetic activity. […] Purified NAD(P)-dependent oxidoreductases were assayed at 30 °C by a routine method used for NAD(P)-linked enzymes by recording the rate of decrease of NAD(P)H at 340 nm (ε = […]) with substrates capable of reduction reactions. The standard reaction mixture (1 ml) for the reduction reactions of substrates contained 10 mM substrate, 40 mM potassium phosphate buffer (K-phosphate buffer) pH 7.0, 0.05 mM NAD(P)H, and the enzyme unless otherwise noted. Reactions were induced by addition of enzyme or substrate. One unit of enzyme activity was defined as the amount of enzyme catalyzing the conversion of 1 µmol of pyridine nucleotide per min at 30 °C. Measurement of the protein content was performed by the method of Bradford in Anal. Biochem. 72:248-254 (1976). Table 3: Summary of enzymatic activities with α-diketones, α-ketoaldehydes and /or α-ketoesters

Row | activities [2] | Activity ([3]; Table 3, Gox2107, K-phosphate buffer pH 7.0, 0.05 mM NAD(P)H, 30 °C) | Structure (SMILES) | Specific Activity [1] | Specific Activities [2] | Specific Activity [3] | Specific Activities [4] | Activity [4] | Activity [1]
1 | 2.3 U/mg protein | – | CCCC(=O)C(C)=O [2,3-hexanedione] | 1.0 U/mg | 2.3 U/mg | < 0.1 U/mg | 8.0 U/mg | 8.0 U/mg | –
2 | – | – | CCC(=O)C(C)=O [2,3-pentanedione] | – | 0.6 U/mg | – | 8.0 U/mg | 8.0 U/mg | –
3 | – | – | CCC(=O)C(=O)CC [3,4-hexanedione] | 2,0 U/mg | 0.6 U/mg | < 0.1 U/mg | 2.0 U/mg | 2.0 U/mg | 2.0 U/mg
4 | – | – | CC(=O)C=O [methylglyoxal] | 1.5 U/mg | 1.4 U/mg | < 0.1 U/mg | 0.2 U/mg | 0.2 U/mg | –
5 | 2.1 U/mg protein | 35.2 U/mg | O=CC(=O)c1ccccc1 [phenylglyoxal] | 15.7 U/mg | 2.1 U/mg | 35.2 U/mg | – | – | 15.7 U/mg
